Holding throughout (experiment): inhibition of tumour cell growth, NCI panel, 48 h
Experiment [1] deals with HL-60.
Experiment [2] deals with PC-3.
For experiment [3], the system named is ACHN.
Experiment [4] has as its system NCI-H23.
Experiment [5] deals with Hs-578T.
Experiment [6] relates to KM12.
Experiment [7] has as its system Malme-3M.
In experiment [8] the test system is IGROV-1.
The subject of experiment [9] is MCF7.
For experiment [10], the system named is NCI-H460.
The subject of experiment [11] is OVCAR-8.
In experiment [12] the test system is A549.
Experiment [13] has as its system RPMI-8226.
For experiment [14], the system named is U-251.
Experiment [15] has as its system OVCAR-4.
Experiment [16] relates to SF-295.
The test system of experiment [17] is SNB-19.
Experiment [18] relates to M14.
Experiment [19] has as its system OVCAR-3.

SMILES strings stand for the structures.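 Assay format: 96-well plates, 48-hour exposure. The concentration for 50% growth inhibition is given as GI50.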 Calls of active or inactive are those of the source. Rule as the data show it: active = GI50 up to about 1.1 µM and inactive = higher.

For `O=C1O[C@H]2[C@H](OC(=O)c3cc(O)c(O)c(O)c3)[C@@H](OC(=O)c3cc(O)c(O)c4c3[C@@H]3C1=CC(=O)C(O)(O)C3(O)O4)[C@H](OC(=O)c1cc(O)c(O)c(O)c1)O[C@@H]2COC(=O)c1cc(O)c(O)c(O)c1` (stereo not given in full) [TERCHEBIN], the GI50 in experiment [1] is 26.7 µM (inactive); in experiment [2], 34.9 µM (inactive); in [3] it was 27.9 µM (inactive); in [4] it was 42.8 µM (inactive); in experiment [5], > 100 µM (inactive); in experiment [6], 14.6 µM (inactive). Also, the GI50 in experiment [7] was > 100 µM (inactive); in experiment [8] it was 47.8 µM (inactive); in [9], 74.5 µM (inactive); in experiment [10] it was 30.1 µM (inactive); in experiment [11], 39.3 µM (inactive); in experiment [12] it was 23.9 µM (inactive). Also, the GI50 in experiment [13] was 51.5 µM (inactive); in [14] it was 54.1 µM (inactive); in [15] it was 32.9 µM (inactive); in [16] it was 48.4 µM (inactive); in experiment [17] it was > 100 µM (inactive); in experiment [18], 60.7 µM (inactive). Besides, the GI50 in [19] was 39.5 µM (inactive).
In the case of `O=C1c2cc([N+](=O)[O-])cnc2S(=O)(=O)N1c1ccc(Br)cc1`, the GI50 in experiment [1], in [2], in experiment [3], in [4], in experiment [5] and in [6] was > 100 µM (inactive) in each case. In addition, the GI50 in experiment [7], in experiment [8], in experiment [9], in [10], in experiment [11] and in [12] was > 100 µM (inactive) each time. Also, the GI50 in [13], in experiment [14], in experiment [15], in experiment [16], in [17] and in [18] was > 100 µM (inactive) in each case. For the same compound, the GI50 in experiment [19] is > 100 µM (inactive).
Take `Cc1ccc(F)c2[nH]c(-c3ccccc3)cc(=O)c12`: the GI50 in experiment [1] was 3.39 µM (inactive); in [2], 8.81 µM (inactive); in experiment [3], 8.77 µM (inactive); in experiment [4], 9.46 µM (inactive); in experiment [5], 14.9 µM (inactive); in experiment [6] it was 3.03 µM (inactive). For the same compound, the GI50 in experiment [7] is 17.9 µM (inactive); in experiment [8] it was 5.3 µM (inactive); in experiment [9], 1.18 µM (inactive); in [10], 5.32 µM (inactive); in experiment [11], 6.11 µM (inactive); in experiment [12], 4.97 µM (inactive). In addition, the GI50 in [13] is 3.96 µM (inactive); in experiment [14] it was 6.04 µM (inactive); in experiment [15], > 70.5 µM (inactive); in [16] it was 6.47 µM (inactive); in experiment [17] it was 9.98 µM (inactive); in [18], 3.37 µM (inactive). For the same compound, the GI50 in experiment [19] is 6.28 µM (inactive).
Turning to `COc1ccc(Nc2c(C#N)c3n(c4ccccc24)c2ccccc2[n+]3C)cc1OC`, the GI50 in [1] is 3.84 µM (inactive); in experiment [2], 2.33 µM (inactive); in experiment [3], 1.96 µM (inactive); in experiment [4] it was 2.94 µM (inactive); in experiment [5], 2.86 µM (inactive); in experiment [6], 3.98 µM (inactive). Further, the GI50 in [7] is 3.82 µM (inactive); in [8], 3.58 µM (inactive); in experiment [9] it was 1.99 µM (inactive); in experiment [10], 1.93 µM (inactive); in experiment [11] it was 1.67 µM (inactive); in [12] it was 3.03 µM (inactive). Further, the GI50 in [13] was 1.98 µM (inactive); in experiment [14], 2.7 µM (inactive); in experiment [15] it was 4.68 µM (inactive); in [16] it was 2.77 µM (inactive); in experiment [17], 3.92 µM (inactive); in [18] it was 2.94 µM (inactive). In [19], the GI50 was 3.52 µM (inactive).
`CN1C(=O)N(c2ccccc2)C2(CCN(CC3COc4ccccc4O3)CC2)C1=O` (stereo not given): the GI50 in experiment [1] is 39.2 µM (inactive); in experiment [2], > 100 µM (inactive); in experiment [3] it was > 100 µM (inactive); in experiment [4], 94.4 µM (inactive); in experiment [5], > 100 µM (inactive); in [6], > 100 µM (inactive). In addition, the GI50 is > 100 µM (inactive) in experiment [7]; > 100 µM (inactive) in experiment [8]; > 100 µM (inactive) in experiment [9]; 96.2 µM (inactive) in [10]; > 100 µM (inactive) in [11]; > 100 µM (inactive) in [12]. Besides, the GI50 in experiment [13] was 99.1 µM (inactive); in experiment [14], > 100 µM (inactive); in experiment [15] it was > 100 µM (inactive); in [16], > 100 µM (inactive); in [17], 5.71 µM (inactive); in [18], > 100 µM (inactive). Also, in [19], the GI50 was 19.8 µM (inactive).
For the compound `CC(CCC#N)(CCC#N)C(=O)CC(O)(C(F)(F)F)C(F)(F)F`, the GI50 in experiment [1] is 0.817 µM (active); in experiment [2], 11.9 µM (inactive); in experiment [3], 4.13 µM (inactive); in experiment [4], 5.43 µM (inactive); in [5] it was 15.3 µM (inactive); in [6] it was 18.1 µM (inactive). The GI50 was 5.02 µM (inactive) in experiment [7]; 13.2 µM (inactive) in experiment [8]; 6.5 µM (inactive) in experiment [9]; 16.6 µM (inactive) in experiment [10]; 3.3 µM (inactive) in experiment [11]; 10.1 µM (inactive) in [12]. The GI50 was 2.64 µM (inactive) in experiment [13]; 9.16 µM (inactive) in [14]; 5.02 µM (inactive) in experiment [15]; 18.2 µM (inactive) in [16]; 23.7 µM (inactive) in experiment [17]; 2.1 µM (inactive) in [18]. Further, the GI50 in experiment [19] is 2.76 µM (inactive).
As for `COc1cc2c(c(OC)c1OC)C(=O)[C@H](Br)[C@H]2NC(=O)NCCCl`, the GI50 in [1] was 75.5 µM (inactive); in experiment [2], > 100 µM (inactive); in [3] it was > 100 µM (inactive); in [4], > 100 µM (inactive); in experiment [5] it was > 100 µM (inactive); in experiment [6], 72.8 µM (inactive). In addition, the GI50 in experiment [7] is > 100 µM (inactive); in experiment [8] it was 68.1 µM (inactive); in [9], > 100 µM (inactive); in experiment [10], 80.4 µM (inactive); in [11], > 100 µM (inactive); in experiment [12], 79.6 µM (inactive). The GI50 was > 100 µM (inactive) in experiment [13]; 51.1 µM (inactive) in [14]; 71 µM (inactive) in experiment [15]; > 100 µM (inactive) in experiment [16]; > 100 µM (inactive) in experiment [17]; 86.1 µM (inactive) in experiment [18]. Further, in experiment [19], the GI50 was 68.2 µM (inactive).
`CC(C)=NC(C(=O)O)C(C)(C)S` (stereo not given): the GI50 in experiment [1], in experiment [2], in experiment [3], in [4], in experiment [5] and in experiment [6] was > 100 µM (inactive) in each case. For the same compound, the GI50 in [7], in experiment [8], in experiment [9], in [10], in [11] and in [12] was > 100 µM (inactive) in each case. Besides, the GI50 in [13], in experiment [14], in experiment [15], in experiment [16], in experiment [17] and in experiment [18] was > 100 µM (inactive) each time. In addition, the GI50 in experiment [19] is > 100 µM (inactive).
On to `COc1cc(O)c2c(O)c3c(=O)oc(C)cc3c(OC)c2c1` [PAEPALANTINE], for which the GI50 in experiment [1] was 27.3 µM (inactive); in experiment [2], 28.4 µM (inactive); in experiment [3], 23.7 µM (inactive); in [4], 23.6 µM (inactive); in experiment [5] it was 29.6 µM (inactive); in [6] it was 27.5 µM (inactive). The GI50 in [7] is 21.4 µM (inactive); in [8], 27 µM (inactive); in [9], 32.6 µM (inactive); in [10], 32.4 µM (inactive); in experiment [11], 27.2 µM (inactive); in experiment [12], 25.8 µM (inactive). In addition, the GI50 in [13] is 20 µM (inactive); in experiment [14], 32.5 µM (inactive); in [15], 14.7 µM (inactive); in experiment [16] it was 27 µM (inactive); in experiment [17], 39.3 µM (inactive); in [18] it was 32 µM (inactive). For the same compound, the GI50 in [19] is 27.2 µM (inactive).
Take `O=C(Oc1cc(=O)c(OC(=O)c2ccccc2)co1)c1ccccc1`: the GI50 in [1] was 34.8 µM (inactive); in [2], 91 µM (inactive); in [3] it was > 100 µM (inactive); in experiment [4] it was > 100 µM (inactive); in experiment [5], 93.8 µM (inactive); in experiment [6], > 100 µM (inactive). For the same compound, the GI50 in experiment [7] was 25.3 µM (inactive); in experiment [8], > 100 µM (inactive); in experiment [9] it was > 100 µM (inactive); in experiment [10] it was > 100 µM (inactive); in [11], > 100 µM (inactive); in [12] it was 84.7 µM (inactive). The GI50 was 47.4 µM (inactive) in [13]; 64.9 µM (inactive) in experiment [14]; 95.7 µM (inactive) in [15]; 51.1 µM (inactive) in experiment [16]; 92.7 µM (inactive) in experiment [17]; > 100 µM (inactive) in experiment [18]. Further, the GI50 in [19] is > 100 µM (inactive).

Source of the values: ChEMBL document CHEMBL1201862, “PubChem BioAssay data set” (2004).
